Where “and” joins values, the source holds several entries; their conditions need not be identical. Equal entries are not always repeated.
Tested on: TaqI-endonuclease site TCGA (2508-2511) of exon 3 of the c-Ha-ras gene
Assay: Detection of ethylnitrosourea induced mutations in the TaqI site of c-Ha-ras exon 3 in cultured human fibroblasts (selective PCR, plaque hybridization)
Assay type: cell-based
Experimental: Monolayer cultures of human foreskin fibroblasts 3229 (other cell lines of the same origin work equally well) are treated with the carcinogen ethylnitrosourea (ENU, 2mM) in DMSO or sham-treated with DMSO only and harvested 3 days later. Total DNA is extracted and digested exhaustively with BamHI yielding a 6.6 Kb fragment containing the c-Ha-ras gene. The digestion mixture is separated on a 1% agarose gel and the DNA in the region from 6.0-7.0 Kb eluted in a “Biotrap” apparatus as described in Example I. The completeness of the BamHI digestion and the recovery of the c-Ha-ras sequences from the gel are monitored by Southern-blotting with a 6.6 Kb c-Ha-ras probe. “Biotrap” purified DNA (6.0-7.0 Kb, corresponding to 25 μg BamHI digested genomic DNA) is then exhaustively digested with TaqI endonuclease and a fragment containing the TaqI site 2508-2511 (TCGA) of the c-Ha-ras gene amplified as described below and illustrated in FIG. 2. At the outset of the amplification 10 copies of an authentic “standard” sequence are added which contain the sequence ACGT at residues 2508-2511 (and a G-instead of the C residue at position 2503), but are otherwise identical to wt c-Ha-ras.
The digested DNA was amplified, utilizing a “nested primer approach” to selectively amplify only DNA containing a mutated TaqI restriction site.
1. Amplification Cycles 1-15. The cycles 1-15 were conducted with the outer primers (see FIG. 2) yielding a 237 bp fragment. Each cycle consists of a melting temperature of 81° C. (1.1 min), an annealing temperature of 55° C. (0.8 min), and an extension temperature of 65° C. (0.3 min). The initial contents of each amplification tube are as follows: 2.5 μl of “digested DNA” (i.e. TaqI digested 6.0-7.0 Kb BamHI fragment population described above); 0.75 μg of each outer primer (primers 1 and 2, see FIG. 2); 25 mM each of dATP, dCTP, dGTP and dTTP; 21% DMSO; 66.6 mM Tris-HCl, pH 8.8, 16.6 mM ammonium sulfate; 6.7 mM magnesium chloride; 10 mM 2-merc:aptoethanol, 6.7 μM EDTA, and 1.5 units Taq polymerase, in a total volume of 25 μl. To prevent evaporation during temperature cycling, an overlay of 3-4 drops of paraffin oil is added to each tube. (Note: Taq polymerase is added to the tubes after an initial melting period of 3 minutes at 92° C. Subsequently, one μl additions of a TaqI endonuclease-containing TaqI Mix are made to the appropriate amplification tubes during the annealing periods of cycles 1, 3, 5, 7 , 9, 11, 13 and 15). The TaqI mix contains 25 mM each of DATP, dCTP, dGTP and dTTP; 21% DMSO; 66.6 mM Tris-HC1, pH 8.8; 16.6 mM ammonium sulfate; 6.7 mM magnesium chloride; 10 mM 2-mercaptoethanol; 6.7 μm EDTA; 0.12 units/μl Taq polymerase and 1.2 units/μl TaqI endonuclease.
Amplification cycles 16-25 are conducted at a higher melting temprature (91° C.) and a lower DMSO concentration (12%) with the outer primers (primers 1 and 2, see FIG. 2). Each cycle consists of a melting temperature of 91° C. (0.8 min) and an annealing temperature of 57° C. (0.4 min). After the 15th cycle, the DMSO concentration is reduced to 12% by transferring 16 μl of each amplification solution to new tubes which contain 11 μl of a DMSO-free mixture consisting of 229 ng of each outer primer/11 μl; 25 mM each of dATP, dCTP, dGTP and dTTP; 66.6 mM Tris-HCl, pH 8.8; 16.6 mM ammonium sulfate; 6.7 mM magnesium chloride, 10 mM 2.-mercaptoethanol and 6.7 μM EDTA. Paraffin oil (3 drops) is added to each tube and the 16th cycle begun with an initial melting period of 3 min at 92° C., after which 1.5 units of Taq polymerase is added to each tube.
Amplification cycles 26-41 are conducted with the inner primers (primers 3 and 4, see FIG. 2), which contain “EcoRI tails” to facilitate later ligation into phage arms. With the chosen inner primers a 184 bp fragment is synthesized. In order to reduce competition between outer and inner primers, the outer primer concentration is reduced by a factor of 121 relative to the inner primer concentration. […]

[1] = mean of 4 Petri dishes, 2 mM ethylnitrosourea, human fibroblasts (3229)

With `CCN(N=O)C(N)=O` [ethylnitrosourea] the “copies of mutated sequence TCTA in the original DNA sample” value (25 μg DNA, 10 copies of standard gave 17% plaques, mutation 7%) was 6 copies, the “plaques containing wt sequence DNA or any of the remaining 11 possible base-pair mutations” value (2 mM ethylnitrosourea, human fibroblasts (3229)) was “No plaques were detected” and the “frequency of induced base-pair mutation TCGA→TCTA at sequence 2508-2511 of the human c-Ha-ras gene” value (2 mM, human fibroblasts 3229, estimated against 10 copies of standard sequence) was ~7.5 mutations in 10^7 c-Ha-ras genes. For the same compound, the mutation frequency (TCGA→TCTA, 2 mM, human fibroblasts 3229, 25 μg DNA) was ~7.5×10^−7 per c-Ha-ras gene, the “plaques containing mutated sequence TCTA, mean” value [1] was 13.2 and the “plaques containing mutated sequence TCTA, mean share” value [1] was “(7%)”. For the same compound, the “plaques containing mutated sequence TCTA” value (number of plaques per Petri dish, DNA from 3 × 10^6 human fibroblasts (3229) treated with 2 mM ethylnitrosourea, harvested 3 days later) was 16 and 13 and 12.

— US6337182B1, “Method for the quantitative determination of DNA sequences” (Dade Behring Marburg GmbH, priority 1990, dated 2002)
